Data on ten compounds can be found in EP4818175A1, “NOVEL ANTIVIRAL COMPOUNDS” (Consejo Superior de Investigaciones Científicas (CSIC), priority 2025, dated 2026).

Where only a bound is given, the exact number is not on record here.

As a reminder, the EC50 is the concentration needed to bring the measured effect to its halfway point.

For this experiment, the system named is HSV-1 K26-GFP. Nature of the experiment: microbe, parasite or virus in culture. It counts as cell-based, HSV-1 (F strain). The note with it: Human alphaherpesvirus 1, Vero, 24 h; for inhibition at 20 µM: read-out: percentage inhibition at the highest concentration tested (20 µM).

The compound `Nc1nc2c(ncn2COCCO)c(=O)[nH]1` [Acyclovir (ACV), Acyclovir, reference compound] registered an EC50 of 0.68 ± 0.11 µM.
In the case of `O=C1c2c(O)c(=O)ccn2N([C@@H]2c3ccccc3SCc3c2ccc(F)c3F)[C@@H]2COCCN12` [Baloxavir acid, reference compound], the EC50 was above 20 µM and the inhibition at 20 µM was 40.7%.
In the same order, the values of `COC(=O)OCOc1c2n(ccc1=O)N([C@@H]1c3ccccc3SCc3c1ccc(F)c3F)[C@@H]1COCCN1C2=O` [Baloxavir marboxil, reference compound] are above 20 µM and 13.7%.
In the case of `O=C1c2c(O)c(=O)ccn2N(Cc2ccc(C(F)(F)F)cc2)[C@@H]2COCCN12` [Compound 7, (R)-7-hydroxy-12-(4-(trifluoromethyl)benzyl)-3,4,12,12a-tetrahydro-1H-[1,4]oxazino[3,4-c]pyrido[2,1-f][1,2,4]triazine-6,8-dione], the EC50 is 3.4 ± 2.7 µM.
Same read-out and setting: to `O=C1c2c(O)c(=O)ccn2N(Cc2ccc(Cl)c(F)c2)[C@@H]2COCCN12` [Compound 10, (R)-12-(4-chloro-3-fluorobenzyl)-7-hydroxy-3,4,12,12a-tetrahydro-1H-[1,4]oxazino[3,4-c]pyrido[2,1-f][1,2,4]triazine-6,8-dione] belongs 10.3 ± 0.9 µM.
As for `O=C1c2c(O)c(=O)ccn2N(Cc2ccc(-c3ccco3)cc2)[C@@H]2COCCN12` [Compound 18, (R)-12-(4-(furan-2-yl)benzyl)-7-hydroxy-3,4,12,12a-tetrahydro-1H-[1,4]oxazino[3,4-c]pyrido[2,1-f][1,2,4]triazine-6,8-dione], the EC50 was above 20 µM and the inhibition at 20 µM turned out to be 48.5%.
`O=C1c2c(O)c(=O)ccn2N(Cc2ccc(-c3ccccc3)cc2)[C@@H]2COCCN12` [Compound 19, (R)-12-([1,1'-biphenyl]-4-yimethyl)-7-hydroxy-3,4,12,12a-tetrahydro-1H-[1,4]oxazino[3,4-c]pyrido[2,1-f][1,2,4]triazine-6,8-dione] came in with an EC50 of 2.8 ± 1.1 µM.
The same measure, in the same setting: to `O=C1c2c(O)c(=O)ccn2N(Cc2ccc(-c3ccc(F)cc3)cc2)[C@@H]2COCCN12` [Compound 29, (R)-12-((4'-fluoro-[1,1'-biphenyl]-4-yl)methyl)-7-hydroxy-3,4,12,12a-tefrahydro-1H-[1,4]oxazino[3,4-c]pyrido[2,1-f][1,2,4]triazine-6,8-dione] belongs 4 ± 1.3 µM; to `O=C1c2c(O)c(=O)ccn2N(Cc2ccc(-c3ccc(OC(F)(F)F)cc3)cc2)[C@@H]2COCCN12` [Compound 32, (R)-7-hydroxy-12-((4'-(trifluoromethoxy)-[1,1'-biphenyl]-4-yl)methyl)-3,4,12,12a-tetrahydro-1H-[1,4]oxazino[3,4-c]pyrido[2,1-f][1,2,4]triazine-6,8-dione], 8.9 ± 1 µM.
The same measure, in the same setting: to `CC(C)c1ccc(O)c(O)c(=O)c1` [β-thujaplicinol, reference compound] belongs 3.9 ± 0.9 µM.
